In patent US20230081390A1, “INHIBITORS OF RAF KINASES” (Kinnate Biopharma Inc., priority 2019, published 2023):

Tests used:
human RAF1 = human RAF1 (Homo sapiens, UniProt P04049); experiment: Protein kinase assay (33P-ATP filter binding), human RAF1, 10-dose IC50; assay type: biochemical; settings: MEK1 (K97R) substrate 3 micromolar, ATP 10 micromolar, read-out: RAF-1 IC50
Method in brief: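 Radiometric filter-binding format: 10 µM ATP, 3 µM MEK1 (K97R) as substrate for human RAF1, 2 hr at room temperature in 20 mM HEPES pH 7.5 with 10 mM MgCl2. Compounds were dispensed acoustically from DMSO. IC50 came from percent kinase activity relative to vehicle over a 10-dose series.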

human BRAF = human BRAF (Homo sapiens, UniProt P15056); experiment: Protein kinase assay (33P-ATP filter binding), human BRAF, 10-dose IC50; assay type: biochemical; settings: MEK1 (K97R) substrate 1 micromolar, ATP 25 micromolar, read-out: B-RAF IC50
Chain of human BRAF (P15056 whole entry): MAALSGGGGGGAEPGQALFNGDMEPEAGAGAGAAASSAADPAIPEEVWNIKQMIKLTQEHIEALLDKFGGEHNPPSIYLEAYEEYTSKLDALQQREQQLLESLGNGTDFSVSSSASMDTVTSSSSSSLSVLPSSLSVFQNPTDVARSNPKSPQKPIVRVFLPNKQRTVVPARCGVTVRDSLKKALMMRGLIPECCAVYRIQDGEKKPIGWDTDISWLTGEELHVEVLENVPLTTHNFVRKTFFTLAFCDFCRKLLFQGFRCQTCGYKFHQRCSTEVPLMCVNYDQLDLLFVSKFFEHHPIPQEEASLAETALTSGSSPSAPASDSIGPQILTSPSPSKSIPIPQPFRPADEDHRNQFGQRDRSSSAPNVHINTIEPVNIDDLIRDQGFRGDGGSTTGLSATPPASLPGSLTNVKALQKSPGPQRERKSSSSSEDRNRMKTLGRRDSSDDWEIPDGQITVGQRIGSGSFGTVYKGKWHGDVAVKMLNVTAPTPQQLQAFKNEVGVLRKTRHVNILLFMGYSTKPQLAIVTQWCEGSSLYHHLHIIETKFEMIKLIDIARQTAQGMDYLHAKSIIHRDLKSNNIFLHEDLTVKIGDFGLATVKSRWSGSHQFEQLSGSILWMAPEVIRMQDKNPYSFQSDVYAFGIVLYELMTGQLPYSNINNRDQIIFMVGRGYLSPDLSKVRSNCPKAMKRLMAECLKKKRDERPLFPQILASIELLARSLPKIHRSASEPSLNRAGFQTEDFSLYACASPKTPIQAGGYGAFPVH
Experimental: Protein kinase assay: Assay platform was used to measure kinase/inhibitor interactions as described previously (Anastassiadis et al., 2011). In brief, for each reaction, kinase and substrate were mixed in a buffer containing 20 mM HEPES (pH 7.5), 10 mM MgCl2, 1 mM EGTA, 0.02% Brij35, 0.02 mg/mL BSA, 0.1 mM Na3VO4, 2 mM DTT, and […]. All compounds were solubilized in DMSO. Compounds were then added to each reaction mixture via acoustic dispense using an ECHO 550 nanoliter dispenser. For human RAF1 testing, human MEK1 (K97R) was used as a substrate at a concentration of 3 micromolar, with a final ATP concentration of 10 micromolar. For human BRAF testing, human MEK1 (K97R) was used as a substrate at 1 micromolar concentration, with a final ATP concentration of 25 micromolar. […] After a 20-min incubation, ATP (Sigma-Aldrich, St. Louis, Mo. 63178) and [g33P] ATP (specific activity 10 microCi/microliter) purchased at PerkinElmer (Boston, Mass., 02118 Cat #BLU 003H250UC) were added at a final total concentration of […]. Reactions were carried out at room temperature for 2 hr and spotted onto P81 ion exchange cellulose chromatography paper (Reaction Biology). Filter paper was washed in 0.75% phosphoric acid to remove unincorporated ATP. The percent remaining kinase activity relative to a vehicle-containing (DMSO) kinase reaction was calculated for each kinase/inhibitor pair. IC50 values were calculated using Prism 5 (GraphPad).

Chain of human RAF1 (P04049 whole entry): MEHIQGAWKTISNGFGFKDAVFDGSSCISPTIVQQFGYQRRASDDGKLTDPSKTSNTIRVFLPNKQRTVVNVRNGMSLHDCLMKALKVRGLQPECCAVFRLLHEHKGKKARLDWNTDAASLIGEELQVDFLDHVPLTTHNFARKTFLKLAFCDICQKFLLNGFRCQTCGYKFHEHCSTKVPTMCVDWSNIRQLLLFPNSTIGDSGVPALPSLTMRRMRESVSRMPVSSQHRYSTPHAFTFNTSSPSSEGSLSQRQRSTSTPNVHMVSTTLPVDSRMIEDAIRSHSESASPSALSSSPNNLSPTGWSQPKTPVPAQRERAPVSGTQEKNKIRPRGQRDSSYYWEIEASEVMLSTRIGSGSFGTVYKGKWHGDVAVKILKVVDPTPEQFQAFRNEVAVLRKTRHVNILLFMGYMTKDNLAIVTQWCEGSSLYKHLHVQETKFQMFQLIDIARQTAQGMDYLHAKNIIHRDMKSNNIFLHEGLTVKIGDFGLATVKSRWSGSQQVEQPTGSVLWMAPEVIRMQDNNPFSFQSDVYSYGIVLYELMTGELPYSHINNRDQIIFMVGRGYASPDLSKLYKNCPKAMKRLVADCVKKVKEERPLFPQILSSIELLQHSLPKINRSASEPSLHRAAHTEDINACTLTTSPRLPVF

SMILES | IC50 (human RAF1) | IC50 (human BRAF)
Cc1cc(F)c(NC(=O)N2CCCC(C(C)(C)C)C2)cc1-c1cc(OCCO)nc(N2CCOCC2)c1 (racemic) [Example 8, (RS)-3-(tert-butyl)-N-(2-fluoro-5-(2-(2-hydroxyethoxy)-6-morpholinopyridin-4-yl)-4-methylphenyl)piperidine-1-carboxamide] | < 10 nM | 10 to 100 nM
Cc1cc(F)c(NC(=O)N2CCOC(C(F)(F)F)C2)cc1-c1cc(OCCO)nc(N2CCOCC2)c1 (racemic) [Example 10, (RS)-N-(2-fluoro-5-(2-(2-hydroxyethoxy)-6-morpholinopyridin-4-yl)-4-methylphenyl)-2-(trifluoromethyl)morpholine-4-carboxamide] | < 10 nM | 10 to 100 nM
Cc1cc(F)c(NC(=O)N2CCCC(C(F)(F)F)C2)cc1-c1cc(OCCO)nc(N2CCOCC2)c1 (racemic) [Example 4, (RS)-N-(2-fluoro-5-(2-(2-hydroxyethoxy)-6-morpholinopyridin-4-yl)-4-methylphenyl)-3-(trifluoromethyl)piperidine-1-carboxamide] | < 10 nM | 10 to 100 nM
Cc1cc(F)c(NC(=O)N2CCNC(C(C)(C)C)C2)cc1-c1cc(OCCO)nc(N2CCOCC2)c1 (racemic) [Example 11, (RS)-3-(tert-butyl)-N-(2-fluoro-5-(2-(2-hydroxyethoxy)-6-morpholinopyridin-4-yl)-4-methylphenyl)piperazine-1-carboxamide] | 10 to 100 nM | 100 to 1000 nM

The next lines start with the values.

IC50 (human RAF1) | IC50 (human BRAF) | SMILES
< 10 nM | 10 to 100 nM | Cc1cc(F)c(NC(=O)N2CCC(C(F)(F)F)C2)cc1-c1cc(OCCO)nc(N2CCOCC2)c1 (racemic) [Example 3, (RS)-N-(2-fluoro-5-(2-(2-hydroxyethoxy)-6-morpholinopyridin-4-yl)-4-methylphenyl)-3-(trifluoromethyl)pyrrolidine-1-carboxamide]
< 10 nM | 100 to 1000 nM | Cc1cc(F)c(NC(=O)N2CCNC(C(F)(F)F)C2)cc1-c1cc(OCCO)nc(N2CCOCC2)c1 (racemic) [Example 7, (RS)-N-(2-fluoro-5-(2-(2-hydroxyethoxy)-6-morpholinopyridin-4-yl)-4-methylphenyl)-3-(trifluoromethyl)piperazine-1-carboxamide]
< 10 nM | 10 to 100 nM | Cc1cc(F)c(NC(=O)N2CCC(C(C)(C)C)C2)cc1-c1cc(OCCO)nc(N2CCOCC2)c1 (racemic) [Example 5, (RS)-3-(tert-butyl)-N-(2-fluoro-5-(2-(2-hydroxyethoxy)-6-morpholinopyridin-4-yl)-4-methylphenyl)pyrrolidine-1-carboxamide]
